Data: patent publication US12661385B2, “Modulation of mTORCI activity and autophagy via CIB2-RHEB interaction” (University of Maryland, Baltimore, priority 2018, dated 2026)
Numbering of substitutions follows the chain as printed. Values belong to the molecule of their own block, whether it stands above or below them.

Experiments:
[1] = test system: RPE-specific Cib2^KO mice; assay: TEM analysis of the RPE at the conclusion of treatment; format: in vivo, mouse; details: 9-cis retinal-treated RPE-specific Cib2^KO mice
Protocol: FIG. 4. […] Scale bar. 2 μm.
Sections for EM were prepared as previously described 48. Briefly, hemisected eyecups were rinsed in buffer and postfixed in 2% osmium tetroxide and 1.5% potassium ferrocyanide in dH2O for 2 hr, dehydrated in a graded ethanol series, and embedded in Epon-Araldite (Electron Microscopy Sciences, Hatfield, PA). Semi-thin sections (4 μm) were cut and stained with 1% cresyl violet. Ultra-thin sections (90 nm) were cut on an ultramicrotome (Ultracut E 701704, Reichert-Jung, Buffalo, NY) using a diamond knife (Micro Star Technologies, Inc., Huntsville, TX), collected on copper grids, counterstained with 4% methanolic uranyl acetate (Electron Microscopy Sciences, Hatfield, PA), and outer retinal morphology examined using a transmission electron microscope (TEM; Model 300: Phillips, Eindhoven, The Netherlands). Photomicrographs were captured with a digital camera (15 megapixel digital camera, Scientific Instruments and Applications, Duluth, GA) and Maxim DL Version 5 software (Diffraction Limited, Ottawa, Canada).

[2] = test system: RPE-specific Cib2^KO mice; details: mouse, in vivo
Description: For comparison, untreated WT control mice (black squares) are replotted from FIG. 6b. c, Schematic of treatment paradigm in RPE-specific Cib2^KO injected with 9-cis retinal and control mice injected with vehicle. d. […] TEM micrographs for indicated genotype at the end of the treatment paradigm as outlined in c (n=3/genotype).
To further assess the potential clinical translatability of exogenous retinoids, we tested an extended treatment paradigm following injection of 9-cis retinal in RPE-specific Cib2^KO mice (FIG. 4c). […] To assess medium-term efficacy of exogenous retinoid therapy, we extended the paradigm further by one month.
Electroretinograms (ERG) were recorded as earlier described^14 with modifications. Mice, overnight dark-adapted, were anesthetized with ketamine-xylazine (100 mg/kg and 10 mg/kg, respectively) and pupils were dilated with 1% Tropicamide. A gold wire lens electrode was placed on the cornea, a platinum reference electrode in the mouth, and a ground electrode on the tail. To assess rod-driven responses, increasing scotopic stimuli were presented sequentially (0.003962233 to 3.147314 cd×s/m2) with 5-60 sec intervals using UTAS BigShot (LKC Technologies, Gaithersburg, MD). At least 3 waveforms per intensity were averaged. For cone function evaluation, photopic responses to a single bright flash (3.15 cd×s/m2) under a steady rod-suppressing field of cd×s/m2. Waves were analyzed using EM for Windows software (LKC Technologies).

[3] = target: T1, TSC1 (Homo sapiens, UniProt Q92574); assay: NanoSPD (nanoTRAP) interaction assay in COS-7 cells, TSC1; format: binding; details: FLAG-tagged TSC1
T1 construct: host or cells: COS-7
T1 sequence (Q92574 1-1164): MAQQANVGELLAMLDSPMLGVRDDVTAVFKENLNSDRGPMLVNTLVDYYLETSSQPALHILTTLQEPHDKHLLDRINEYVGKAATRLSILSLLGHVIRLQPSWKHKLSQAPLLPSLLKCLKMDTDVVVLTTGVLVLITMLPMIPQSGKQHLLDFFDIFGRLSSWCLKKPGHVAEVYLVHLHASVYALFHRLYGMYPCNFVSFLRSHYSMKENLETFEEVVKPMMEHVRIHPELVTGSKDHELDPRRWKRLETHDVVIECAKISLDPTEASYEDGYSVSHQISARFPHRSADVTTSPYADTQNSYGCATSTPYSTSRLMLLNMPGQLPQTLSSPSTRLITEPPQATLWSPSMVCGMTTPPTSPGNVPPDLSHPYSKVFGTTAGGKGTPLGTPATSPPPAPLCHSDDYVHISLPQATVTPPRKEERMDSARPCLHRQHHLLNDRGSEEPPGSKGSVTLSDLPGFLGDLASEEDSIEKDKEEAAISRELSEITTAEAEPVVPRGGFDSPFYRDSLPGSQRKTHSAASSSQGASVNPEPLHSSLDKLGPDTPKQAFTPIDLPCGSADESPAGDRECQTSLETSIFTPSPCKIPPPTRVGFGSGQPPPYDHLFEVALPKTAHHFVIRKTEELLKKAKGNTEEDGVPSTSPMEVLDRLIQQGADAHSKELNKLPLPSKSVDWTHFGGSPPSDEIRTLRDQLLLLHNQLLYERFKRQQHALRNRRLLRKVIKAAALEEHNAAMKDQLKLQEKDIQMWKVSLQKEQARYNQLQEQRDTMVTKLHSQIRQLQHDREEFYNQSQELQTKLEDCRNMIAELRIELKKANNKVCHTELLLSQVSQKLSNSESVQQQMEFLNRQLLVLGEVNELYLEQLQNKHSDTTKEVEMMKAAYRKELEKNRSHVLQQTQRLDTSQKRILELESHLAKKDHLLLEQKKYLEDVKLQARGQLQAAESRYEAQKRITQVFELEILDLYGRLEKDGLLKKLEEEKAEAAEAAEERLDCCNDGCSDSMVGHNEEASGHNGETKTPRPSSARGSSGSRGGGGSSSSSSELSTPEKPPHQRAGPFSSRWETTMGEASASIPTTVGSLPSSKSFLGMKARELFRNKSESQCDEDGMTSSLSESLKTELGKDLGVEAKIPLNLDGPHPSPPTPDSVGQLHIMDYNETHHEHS
Description: (§1) FIG. 14. […] Arrowheads indicate filopodia tip accumulation of hCIB2-eGFP, * indicates no accumulation of indicted constructs in the red channel. c. Representative confocal images (top panel) showing CIB2 (green) interaction with Rheb (red) and Raptor (red) using NanoTRAP assay. […] Arrowheads indicate filopodia tip accumulation of indicated constructs, * indicates no accumulation of indicted construct in the red or far-red channel. Scale bar: 10 μm. d. Quantification for nanoTRAP assay for images shown above. *** p<0.001 by one-way ANOVA. e, Co-IP experiments show interaction between Raptor and CIB2.
(§2) To reveal the molecular mechanism of CIB2-mediated mTORC1 modulation, we focused on the TSC-Rheb-mTORC1 axis. We performed an interaction screen of specific proteins including TSC1, TSC2, mTORC1-specific subunit Raptor, mTOR kinase, and Rheb. We used a recently-published quantitative interaction assay known as nanoscale pulldown 2.0 (NanoSPD), in which eGFP-nanobody tag fused to the myosin-HMM domain (nanoTRAP) preferentially migrates to the filopodia (Bird et al., Molecular Biology of the Cell 28, 463-475 (2017)). CIB2-eGFP (bait) migrated efficiently to filopodia in COS-7 cells only in the presence of the nanoTRAP. […] Many downstream and upstream targets of mTORC1 regulate its activity via binding to the mTORC1-specific subunit Raptor. […]

[4] = target: T2, TSC2 (Homo sapiens, UniProt P49815); assay: NanoSPD (nanoTRAP) interaction assay in COS-7 cells, TSC2; format: binding; details: FLAG-tagged TSC2
T2 construct: host or cells: COS-7
Description: as §1, §2

[5] = target: Rheb (Homo sapiens, UniProt Q15382); assay: Co-IP of tdTomato-CIB2 with HA-GST-Rheb and Rheb variants; format: binding; design: host or cells: HEK293; details: HEK293 lysates
Protocol: FIG. 3. […] Note the stronger interaction between CIB2 and Rheb S20N variant as compared to Q64L variant (GDP vs GTP mimetic, respectively). c, CIB2 preferentially interacts with GDP-loaded Rheb is further confirmed by co-IP experiments of HA-GST-Rheb immobilized on […] and loaded with either GDP or GTPγS, followed by incubation with tdTomato-CIB2 lysate. d, Proposed model of CIB2 function in retinal sensory cells. […] Loss of CIB2 results in reduced autophagy and exacerbated mTORC1 signaling, thus leading to RPE pathology and secondary PR dysfunction. e, f Immunoblots from RPE/choroid lysates from dry AMD or control age-matched donors indicate reduced CIB2 expression, overactive mTORC1 and reduced autophagy, quantified in panel f. Unpaired two-tailed 1 test was used to determine statistical significance. p value of <0.05 (*), <0.01 (**), and <0.001 (***). Please note that one control sample (ψ) is outliner and is highly variant from the rest, Re-quantification, omitting the highly variant control sample, is shown in FIG. 15. g.
We tested the essentiality of nucleotide binding state of Rheb using co-IP assays. […] Next, we used the Q64L and […] Rheb variants, which mimic the GTP- and GDP-bound state, respectively. […]

T2 sequence (P49815 whole entry): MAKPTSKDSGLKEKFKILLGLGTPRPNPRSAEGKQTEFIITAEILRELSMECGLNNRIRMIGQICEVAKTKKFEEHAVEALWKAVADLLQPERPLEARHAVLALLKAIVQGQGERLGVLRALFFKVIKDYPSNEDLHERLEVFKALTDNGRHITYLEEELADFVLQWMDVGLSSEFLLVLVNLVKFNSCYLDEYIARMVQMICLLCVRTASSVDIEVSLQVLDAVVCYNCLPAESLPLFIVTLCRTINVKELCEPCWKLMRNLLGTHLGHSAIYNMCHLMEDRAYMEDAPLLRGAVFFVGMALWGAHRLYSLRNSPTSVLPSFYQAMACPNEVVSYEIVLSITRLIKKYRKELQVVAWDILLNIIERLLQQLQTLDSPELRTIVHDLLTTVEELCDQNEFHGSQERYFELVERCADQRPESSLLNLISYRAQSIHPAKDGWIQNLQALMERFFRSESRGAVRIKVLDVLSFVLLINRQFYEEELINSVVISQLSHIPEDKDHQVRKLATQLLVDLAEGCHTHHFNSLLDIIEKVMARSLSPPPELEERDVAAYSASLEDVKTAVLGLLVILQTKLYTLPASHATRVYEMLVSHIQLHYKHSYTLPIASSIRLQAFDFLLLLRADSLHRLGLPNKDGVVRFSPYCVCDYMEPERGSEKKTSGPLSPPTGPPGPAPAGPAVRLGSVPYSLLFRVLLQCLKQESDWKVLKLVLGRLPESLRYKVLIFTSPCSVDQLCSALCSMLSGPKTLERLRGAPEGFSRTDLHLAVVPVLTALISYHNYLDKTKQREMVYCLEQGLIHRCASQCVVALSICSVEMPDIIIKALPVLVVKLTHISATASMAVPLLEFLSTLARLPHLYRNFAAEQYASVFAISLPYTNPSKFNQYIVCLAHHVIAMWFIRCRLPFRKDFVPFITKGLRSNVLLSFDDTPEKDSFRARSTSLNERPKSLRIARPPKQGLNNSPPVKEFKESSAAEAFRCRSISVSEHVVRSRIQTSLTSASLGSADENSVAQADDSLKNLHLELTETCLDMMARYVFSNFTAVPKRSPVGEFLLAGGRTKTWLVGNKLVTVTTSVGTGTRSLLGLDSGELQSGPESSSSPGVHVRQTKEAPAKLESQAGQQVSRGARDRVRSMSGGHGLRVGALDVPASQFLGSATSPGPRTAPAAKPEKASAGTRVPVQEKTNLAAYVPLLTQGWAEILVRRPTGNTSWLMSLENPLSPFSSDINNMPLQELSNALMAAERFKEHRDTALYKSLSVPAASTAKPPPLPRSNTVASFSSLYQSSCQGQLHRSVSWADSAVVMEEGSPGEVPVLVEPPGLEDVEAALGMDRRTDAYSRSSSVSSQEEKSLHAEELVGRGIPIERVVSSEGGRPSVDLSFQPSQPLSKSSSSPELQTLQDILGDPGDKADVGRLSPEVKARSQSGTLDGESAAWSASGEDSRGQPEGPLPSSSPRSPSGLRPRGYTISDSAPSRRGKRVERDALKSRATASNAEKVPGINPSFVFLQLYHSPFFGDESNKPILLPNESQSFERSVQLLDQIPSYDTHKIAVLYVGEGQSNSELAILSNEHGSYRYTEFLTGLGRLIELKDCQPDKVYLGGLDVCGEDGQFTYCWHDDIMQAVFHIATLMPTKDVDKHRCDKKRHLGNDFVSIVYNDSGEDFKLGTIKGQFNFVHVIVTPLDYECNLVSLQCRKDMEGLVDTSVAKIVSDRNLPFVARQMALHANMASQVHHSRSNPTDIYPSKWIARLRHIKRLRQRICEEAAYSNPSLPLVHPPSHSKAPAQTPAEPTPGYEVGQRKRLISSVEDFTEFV
Sequence of Rheb (Q15382 1-181): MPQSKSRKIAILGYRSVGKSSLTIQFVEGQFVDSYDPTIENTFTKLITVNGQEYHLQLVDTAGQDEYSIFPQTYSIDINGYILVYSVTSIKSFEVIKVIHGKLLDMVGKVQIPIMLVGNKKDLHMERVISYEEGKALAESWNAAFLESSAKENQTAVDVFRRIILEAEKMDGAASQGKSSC

- ERG amplitude differences between groups four weeks post-injection [2]: returned to their baseline levels
- ERG amplitudes four weeks after the 2nd injection [2]: diverged significantly
- ERG amplitudes two weeks after the 2nd injection [2]: no discernable inter-group differences
Molecule: CC1=C(/C=C/C(C)=C\C=C\C(C)=C\C=O)C(C)(C)CCC1 [9-cis retinal]
- Mice with vacuoles and/or sub-RPE drusen present in the RPE (TEM) [1]: 3 of 3
- ERG amplitudes after the treatment paradigm (overall) [2]: temporarily but reproducibly improved ERG amplitudes
- ERG amplitudes two weeks after the 1st injection [2]: indistinguishable from those of vehicle-injected RPE-Cre+ controls

- Co-accumulation with TSC1 (NanoSPD) [3]: did not show any co-accumulation
- Co-accumulation with TSC2 (NanoSPD) [4]: did not show any co-accumulation
B1: CIB2-eGFP: eGFP-tagged human CIB2 used as bait in the NanoSPD assay (protein)
chain: MGNKQTIFTEEQLDNYQDCTFFNKKDILKLHSRFYELAPNLVPMDYRKSPIVHVPMSLIIQMPELRENPFKERIVAAFSEDGEGNLTFNDFVDMFSVLCESAPRELKANYAFKIYDFNTDNFICKEDLELTLARLTKSELDEEEVVLVCDKVIEEADLDGDGKLGFADFEDMIAKAPDFLSTFHIRI
modifications: left off: large carriers
notes: eGFP-tagged human CIB2 used as bait in the NanoSPD assay

- Co-immunoprecipitation with HA-GST-Rheb [5]: co-immunoprecipitated with HA-GST-Rheb
B2: tdTomato-CIB2: tdTomato tagged CIB2 expressed in HEK293 cells (tdTomato-C1-mCIB2 construct) (protein)
chain: B1 chain with S32A, A76E, L130M, D141E, E143D
modifications: left off: large carriers
